Experimental data from patent publication US10604529B2, “Fused imidazole compound having indoleamine 2,3-dioxygenase inhibitory activity” (SHENZHEN CHIPSCREEN BIOSCIENCES CO., LTD., priority 2016, dated 2020).

Tests used:
[1] = molecular target: T1, Recombinant human IDO enzyme (IDO1 enzyme) (Homo sapiens, UniProt P14902); assay: In vitro IDO enzymatic activity assay (kynurenine colour reaction, 492 nm); assay type: biochemical; details: tested compound concentration 200 nM; recombinant human IDO1; read-out: IDO Enzymatic Inhibition Rate (%) (200 nM)
T1 construct: purchased BPS Bioscience, USA
T1 sequence (P14902 whole entry): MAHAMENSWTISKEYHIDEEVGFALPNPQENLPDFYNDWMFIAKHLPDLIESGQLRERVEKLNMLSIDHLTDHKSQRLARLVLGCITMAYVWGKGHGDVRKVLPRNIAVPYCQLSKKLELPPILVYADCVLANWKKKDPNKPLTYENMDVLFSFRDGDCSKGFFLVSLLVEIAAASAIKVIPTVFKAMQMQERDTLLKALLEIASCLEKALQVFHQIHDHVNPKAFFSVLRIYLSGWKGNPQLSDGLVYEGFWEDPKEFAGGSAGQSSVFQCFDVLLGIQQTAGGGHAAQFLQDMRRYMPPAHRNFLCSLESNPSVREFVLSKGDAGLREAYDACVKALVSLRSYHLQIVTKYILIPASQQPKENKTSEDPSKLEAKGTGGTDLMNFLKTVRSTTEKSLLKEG
Procedure: The basic principle of the in vitro IDO enzymatic activity detection is to use the IDO enzyme to metabolize the substrate L-tryptophan to produce the product kynurenine in an in vitro enzyme-catalyzed reaction system. The kynurenine is yellow in color reaction with p-dimethylaminobenzaldehyde in glacial acetic acid, and the absorbance value was measured at 492 nm on a microplate reader. The concentration of the product kynurenine in the sample is calculated by comparison to a standard curve of kynurenine with a known concentration.
Recombinant human IDO enzyme (IDO1 enzyme) was purchased from BPS Bioscience, USA.
(3) Control reactions were set up at the same time the detection reaction was carried out. including 0 inhibition positive control with no tested compound added and 0 enzyme negative control with no enzyme added. All tests were run in duplicate.
(4) After the enzymatic reaction was completed, 40 μl of a pre-formulated 30% (w/v) trichloroacetic acid solution was added, and reacted at 65° C. for 20 minutes, followed by centrifugation at 12,000 rpm for 15 minutes.
(5) 100 μl of the supernatant after centrifugation was pipetted and added to a 96-well plate. An equal volume of 2% p-dimethylaminobenzaldehyde in glacial acetic acid was added, well mixed, and allowed to stand at room temperature for 10 minutes.
(6) A microplate reader (ELX800NB) was used to detect the color signal of each well with a detection wavelength of 492 nm.
In addition, the enzymatic inhibition rates were calculated for the tested compounds of different concentration gradients, and then the enzymatic half maximal inhibitory concentration (IC50) was calculated using the IC50 calculator.
According to the above-mentioned method of experiment, the compound of the present disclosure was subjected to an in vitro IDO enzymatic IC50 assay using NLG919 as a positive control compound.

[2] = molecular target: T2, IFN-γ-induced IDO enzyme in HeLa cells (Homo sapiens, UniProt P14902); assay: Detection of IDO inhibitory activity at the cellular level (IFN-γ-induced HeLa cells); assay type: cell-based; details: tested compound 1 μM, human IFN-γ 50 ng/ml, 48 hours, read-out: IDO Inhibitory Rate (%) (1 μM)
T2 construct: HeLa cells are human cervical cancer cell lines and can up-regulate the expression of endogenous IDO enzymes; endogenous in cells; host or cells: HeLa cells stimulated with human IFN-γ
T2 sequence (P14902 whole entry): as above
Source text: In the present disclosure, IFN-γ-induced IDO enzyme expression in HeLa cells were used as a model to detect the IDO enzymatic inhibitory activity of the compound at the cellular level. HeLa cells are human cervical cancer cell lines and can up-regulate the expression of endogenous IDO enzymes under the induction of human IFN-γ. The cell supernatant can be subjected to detection of the enzyme-catalyzed product kynurenine by adding the substrate L-tryptophan to the cell culture solution. […] Recombinant human IFN-γ cytokine purchased from Sangon Biotech, Phenol red-free DMEM for cell culture purchased from Gibco. […] The cells were further cultured for 48 hours and detected. (2) 200 μl of the supernatant from the culture well was pipetted, 40 μl of a pre-formulated 30% (w/v) trichloroacetic acid solution was added, allowed to react at 65° C. for 20 minutes, and then centrifuged at 12,000 rpm for 15 minutes. (3) 100 μl of the supernatant after centrifugation was pipetted and added into a 96-well plate, an equal volume of 2% p-dimethylaminobenzaldehyde in glacial acetic acid was added, and they were mixed well and allowed to stand at room temperature for 10 minutes. (4) A microplate reader (ELX800NB) was used to detect the color signal of each well, and the detection wavelength was 492 nm.

Row | SMILES | inhibition at 0.2 µM [1] | inhibition at 1 µM [2]
1 | CN(CC(=O)N1CCC(C(O)CC2c3ccccc3-c3cncn32)CC1)c1ccc(C#N)cc1 (centres unmarked) [Example 98] | 81% | 83%
2 | COc1cccc(N(C)CC(=O)N2CCC(C(O)CC3c4ccccc4-c4cncn43)CC2)c1 (centres unmarked) [Example 102, 2-((3-methoxyphenyl)(methyl)amino)-1-(4-(1-hydroxy-2-(5H-imidazo[5,1-a]isoindol-5-yl)ethyl)piperidin-1-yl)ethyl-1-one] | 85% | 95%
3 | CN(CC(=O)N1CCC(C(O)CC2c3ccccc3-c3cncn32)CC1)c1ccc([N+](=O)[O-])cc1 (centres unmarked) [Example 105, 1-(4-(1-hydroxy-2-(5H-imidazo[5,1-a]isoindol-5-yl)ethyl)piperidin-1-yl)-2-(methyl(4-nitrophenyl)atnino)ethyl-1-one] | 84% | 91%
4 | CN(CC(=O)N1CCC(C(O)CC2c3ccccc3-c3cncn32)CC1)c1ccc2ncccc2c1 (centres unmarked) [Example 113, 1-(4-(1-hydroxy-2-(5H-imidazo[5,1-a]isoindol-5-yl)ethyl)piperidin-1-yl)-2-(methyl(quinolin-6-yl)amino)ethyl-1-one] | 75% | 74%
